Structures can show the parent of a compound that is named as a salt. *1 amine or outer side, *2 acyl side, *3 side chain or, on linkers, in order; H or OH if unused. Where a SMILES comes first, the peptide text is derived from it. Bridges are numbered along the chain shown (N, C = ends). Roman numbers before positions name the chains, in order. [ ]: non-standard residue; d: D form. Actinocin(9to1) = Cc1c2oc3c(C)ccc(C(=O)[*:1])c3nc-2c(C(=O)[*:2])c(N)c1=O; NMeV = CN[C@H](C(=O)O)C(C)C; Sar = CNCC(=O)O
test system: hDMFa myofibroblast cells

Structure (SMILES)	Compound Myofibroblast Cytotoxicity Activity
OC1OC[C@H](O)[C@H](O)[C@H]1O (mixture of isomers) [Cmpd 560, L-Arabinose]	++++
OC[C@H]1O[C@H](O[C@H]2[C@H](O)[C@@H](O)[C@@H](O[C@H]3[C@H](O)[C@@H](O)C(O)O[C@@H]3CO)O[C@@H]2CO)[C@H](O)[C@@H](O)[C@@H]1O (mixture of isomers) [Cmpd 634, Maltotriose]	+++
CC(C)NCC(O)COc1ccc(CC(N)=O)cc1 (racemic) [Cmpd 14, (±)-Atenolol]	+++
CC1CCC(C(C)C)C(O)C1 (racemic) [Cmpd 16, (±)-Menthol]	++
CCCCCCCCCCCCCCCC(=O)OC(CC(=O)O)C[N+](C)(C)C.[Cl-] (racemic) [Cmpd 17, (±)-Palmitoylcarnitine chloride]	++
CC1=CCC2CC1C2(C)C (racemic) [Cmpd 18, (±)-α-Pinene]	++
O[C@H](CS)[C@H](O)CS (racemic) [Cmpd 368, DL-Dithiothreitol]	++++
CSCCC(N)C(=O)O (racemic) [Cmpd 369, DL-Methionine]	++
CC(C)(CO)C(O)C(=O)NCCCO (racemic) [Cmpd 370, DL-Panthenol]	+++
Cl.NCCCC(N)(C(=O)O)C(F)F (racemic) [Cmpd 371, DL-α-Difluoromethylornithine (hydrochloride hydrate)]	++
Cc1c(C)c2c(c(C)c1O)CCC(C)(CCCC(C)CCCC(C)CCCC(C)C)O2 (racemic) [Cmpd 373, DL-α-Tocopherol]	++
CCC/C=C1\OC(=O)C2=C1CCC=C2 [Cmpd 2, Z-Ligustilide]	++
C/C=C/c1cc(OC)c(OC)cc1OC [Cmpd 3, α-Asarone]	++
C=C1CC/C=C(\C)CC[C@@H]2[C@@H]1CC2(C)C [Cmpd 8, β-Caryophyllene]	+++
CCCCC/C=C\C/C=C\C/C=C\CCCCC(=O)O [Cmpd 9, γ-Linolenic Acid]	+++
CC12CCC(CC1=O)C2(C)C (stereo not drawn) [Cmpd 11, (+)-Camphor]	++
CC1=CC[C@@H]2C[C@H]1C2(C)C [Cmpd 19, (1R)-(+)-α-Pinene]	+
CC1=CC(=O)[C@H]2C[C@@H]1C2(C)C [Cmpd 20, (1S)-(−)-Verbenone]	++
CC1=CC[C@H]2C[C@@H]1C2(C)C [Cmpd 21, (1S)-(-)-α-Pinene]	++
C=C1CC[C@H]2C[C@@H]1C2(C)C [Cmpd 22, (1S)-(-)-β-Pinene]	++
Cl.N[C@H](C=O)[C@@H](O)[C@H](O)[C@H](O)CO [Cmpd 23, (2S,3R,4S,5R)-2-Amino-3,4,5,6-tetrahydroxyhexanal hydrochloride]	++
C=C(C)[C@@H]1CC=C(C)C(=O)C1 [Cmpd 24, (R)-(−)-Carvone]	++
C[C@@H](Oc1cc(-c2cnn(C3CCNCC3)c2)cnc1N)c1c(Cl)ccc(F)c1Cl [Cmpd 27, (R)-Crizotinib]	++++

Structure (SMILES)	Compound Myofibroblast Cytotoxicity Activity
C=C(C)[C@H]1CC=C(C)C(=O)C1 [Cmpd 28, (S)-(+)-Carvone]	++
C[C@H](Oc1cc(-c2cnn(C3CCNCC3)c2)cnc1N)c1c(Cl)ccc(F)c1Cl [Cmpd 29, (S)-Crizotinib]	++++
C[C@H](C(=O)O)c1ccc(-c2ccccc2)c(F)c1 [Cmpd 30, (S)-Flurbiprofen]	++++
COc1ccc2cc([C@H](C)C(=O)O)ccc2c1 [Cmpd 32, (S)-Naproxen]	++
CCCCCCCC/C=C\CCCCCCCC(=O)OCC(C[N+](C)(C)C)OC(=O)CCCCCCC/C=C\CCCCCCCC.[Cl-] (stereo not shown) [Cmpd 33, 1,2-Dioleoyl-3-trimethylammoniumpropane (chloride)]	+++
Oc1ncnc2[nH]ncc12 [Cmpd 37]	+
C=CCCCCCCCCC(=O)O [Cmpd 39, 10-Undecenoic acid]	++
C=CCNC1=C2C[C@@H](C)C[C@H](OC)[C@H](O)[C@@H](C)/C=C(\C)[C@H](OC(N)=O)[C@@H](OC)/C=C\C=C(/C)C(=O)NC(=CC1=O)C2=O [Cmpd 40, 17-AAG (KOS953)]	+++
CCCCCCCCCCCCCCO [Cmpd 43, 1-Tetradecanol]	+
O=CC[C@H](O)[C@H](O)CO [Cmpd 46, 2-Deoxy-D-ribose]	++++
O=c1ccn([C@H]2C[C@H](O)[C@@H](CO)O2)c(=O)[nH]1 [Cmpd 47, 2-Deoxyuridine]	++
O=C(O)c1cc(O)cc(O)c1 [Cmpd 50, 3-5-Dihydroxybenzoic Acid]	++
CC(=O)O[C@@H]1CC[C@@]2(C)[C@@H](CC[C@]3(C)[C@@H]2C(=O)C=C2[C@@H]4[C@@H](C)[C@H](C)CC[C@]4(C)CC[C@]23C)[C@@]1(C)C(=O)O [Cmpd 51, 3-acetyl-11-keto-β-Boswellic Acid]	+++++
Cc1occc(=O)c1O [Cmpd 52]	++
CCCCC1OC(=O)c2ccccc21 (stereo not shown) [Cmpd 54, 3-n-Butylphathlide]	++
NCc1ccc(C(=O)O)cc1 [Cmpd 56]	++
Nc1ccc(C(=O)O)c(O)c1 [Cmpd 59, 4-Aminosalicylic acid]	++
O=C(O)Cc1ccc(-c2ccccc2)cc1 [Cmpd 60, 4-Biphenylacetic acid]	++
O=C(O)c1ccc(O)cc1 [Cmpd 61]	++++
Cc1cc(=O)oc2cc(O)ccc12 [Cmpd 63, 4-Methylumbelliferone (4-MU)]	++++
Nc1ncn([C@@H]2O[C@H](CO)[C@@H](O)[C@H]2O)c(=O)n1 [Cmpd 64, 5-Azacytidine]	+++
O=Cc1ccc(CO)o1 [Cmpd 66]	++
O=c1ccc2cc(O)c(O)cc2o1 [Cmpd 69]	++

Structure (SMILES)	Compound Myofibroblast Cytotoxicity Activity
Br.NCCc1cc(O)c(O)cc1O [Cmpd 72]	++++
Oc1cccc2cccnc12 [Cmpd 74, 8-Hydroxyquinoline]	++
CC(=O)O[C@H]1CC[C@@]2(C)C(=CC[C@@H]3[C@@H]2CC[C@]2(C)C(c4cccnc4)=CC[C@@H]32)C1 [Cmpd 75, Abiraterone acetate]	+++
CC1(C)CCC(c2ccc(Cl)cc2)=C(CN2CCN(c3ccc(C(=O)NS(=O)(=O)c4ccc(N[C@H](CCN5CCOCC5)CSc5ccccc5)c(S(=O)(=O)C(F)(F)F)c4)cc3)CC2)C1 [Cmpd 77, ABT-263 (Navitoclax)]	+++++
CC(=O)Nc1ccccc1 [Cmpd 79, Acetanilide]	++++
CC(=O)O.Cc1cc2c(C(C)C)c(O)c(O)c(C=O)c2c(O)c1-c1c(C)cc2c(C(C)C)c(O)c(O)c(C=O)c2c1O [Cmpd 80, Acetate gossypol]	+++++
CC(=O)NO [Cmpd 81, Acetohydroxamic Acid]	++++
CC(=O)c1ccccc1 [Cmpd 82, Acetophenone]	++
CC(=O)OCC[N+](C)(C)C.[I-] [Cmpd 83, Acetylcholine iodide]	++
Cc1c2oc3c(C)ccc(C(=O)N[C@@H]4C(=O)N[C@H](C(C)C)C(=O)N5CCC[C@H]5C(=O)N(C)CC(=O)N(C)[C@@H](C(C)C)C(=O)O[C@@H]4C)c3nc-2c(C(=O)N[C@@H]2C(=O)N[C@H](C(C)C)C(=O)N3CCC[C@H]3C(=O)N(C)CC(=O)N(C)[C@@H](C(C)C)C(=O)O[C@@H]2C)c(N)c1=O [Cmpd 86, Actinomycin D] (I: T[dV]P[Sar][NMeV] / II: T[dV]P[Sar][NMeV]; ester I:1-I:C, II:1-II:C; linker I:N-II:N via Actinocin(9to1))	++
CC(C)(C)C(=O)OCOP(=O)(COCCn1cnc2c(N)ncnc21)OCOC(=O)C(C)(C)C [Cmpd 89, Adefovir Dipivoxil]	++++
Nc1ncnc2c1ncn2[C@@H]1O[C@H](COP(=O)(O)OP(=O)(O)OP(=O)(O)O)[C@@H](O)[C@H]1O [Cmpd 91, Adenosine 5-triphosphate]	+++
Nc1ncnc2c1ncn2[C@@H]1O[C@H](COP(=O)(O)OP(=O)(O)O)[C@@H](O)[C@H]1O [Cmpd 92]	++
C=C1C(=O)O[C@@H]2C[C@@]3(C)CCC[C@H](C)C3=C[C@H]12 [Cmpd 97, Alantolactone]	++++
C=C1/C(=C\C=C2/CCC[C@]3(C)[C@@H]([C@H](C)CCCC(C)C)CC[C@@H]23)C[C@@H](O)C[C@@H]1O [Cmpd 98, Alfacalcidol]	+++
Cn1c(=O)cc(N2CCC[C@@H](N)C2)n(Cc2ccccc2C#N)c1=O [Cmpd 100, Alogliptin Benzoate]	+++
Cc1[nH]cnc1CN1CCc2c(c3ccccc3n2C)C1=O.Cl [Cmpd 101, Alosetron Hydrochloride]	++++
N=C(N)NC(=O)c1nc(Cl)c(N)nc1N [Cmpd 105, Amiloride HCl dihydrate]	++
CCCCc1oc2ccccc2c1C(=O)c1cc(I)c(OCCN(CC)CC)c(I)c1 [Cmpd 107, Amiodarone HCl]	+++
CCOC(=O)C1=C(COCCN)NC(C)=C(C(=O)OC)C1c1ccccc1Cl (stereo not shown) [Cmpd 110, Amlodipine]	+++
CCOC(=O)C1=C(COCCN)NC(C)=C(C(=O)OC)C1c1ccccc1Cl (stereo not shown) [Cmpd 111, Amlodipine Besylate]	++++
